The test system of experiment [1] is HBV (extracellular HBsAg) in PHH. Description: Cryopreserved primary human hepatocytes (PHH) HBV infection assay, HBsAg CLIA. In kind it is cell-based. Particulars: Hepatitis B virus, Hepatocyte, 216 h, read-out: HBsAg IC50. How it is done:
This assay is used to confirm the anti-HBV effect of the compounds in HBV PHH infection assay. Cryopreserved PHH (BioreclamationIVT, Lot YJM) was thawed at 37° C. and gently transferred into pre-warmed InVitroGRO HT medium (BioreclamationIVT, Cat. S03317). The mixture was centrifuged at 70 relative centrifugal force (RCF) for 3 minutes at RT, and the supernatant was discarded. Pre-warmed InVitroGRO CP medium (BioreclamationIVT, Cat #S03316) was added to the cell pellet to gently re-suspend cells. The cells were seeded at the density of 5.8×10^4 cells per well to collagen I coated 96-well plate (Gibco, Cat. A1142803) with the InVitroGRO CP medium. All plates were incubated at 37° C. with 5% CO2 and 85% humidity.
At 20 hours after plating, the medium was changed to PHH culture medium (Dulbecco's Modified Eagle Medium (DMEM)/F12 (1:1) (Gibco, Cat. 11320-033), 10% fetal bovine serum (Gibco Cat. 10099141), 100 U/mL penicillin, 100 μg/mL streptomycin (Gibco, Cat. 151401-122), […] (Invitrogen Cat. PHG0311L), 20 ng/mL dexamethasone (Sigma, Cat. D4902) and 250 ng/mL human recombinant insulin (Gibco, Cat. 12585-014)). And the cells were incubated at 37° C. with 5% CO2 and 85% humidity for 4 hours. The medium was then changed to pre-warmed PHH culture medium containing 4% polyethylene glycol (PEG) MW8000 (Sigma, Cat. P1458-50ML) and 1% DMSO (Sigma, Cat. D2650). 5.8×10^6 genomic equivalents of HBV were added into the medium.
At 24 hours post-infection, the cells were gently washed with PBS and refreshed with PHH culture medium supplemented with 1% DMSO, and 0.25 mg/mL Matrix gel (Corning, Cat. 356237) at 200 μL per well. All plates were immediately placed in at 37° C. CO2 incubator.
24 hours later, serial dilutions of compounds made with DMSO were further diluted with the same culture medium (PHH culture medium supplemented with 1% DMSO and 0.25 mg/mL Matrix gel as described above) before they were added to the cells to reach desired final compound concentrations and 1% DMSO concentration. The medium containing the compounds were refreshed every three days.
At 9 days post-compound treatment, extracellular HBsAg level were measured with Chemiluminescence Immuno Assay (CLIA) kit (Autobio, HBsAg Quantitative CLIA). Extracellular HBV DNA was extracted by MagNA Pure 96 system (Roche) and then determined by quantitative PCR with the following primers and probe: […]
HBsAg IC50 and HBV DNA IC50 values were derived from the dose-response curve using 4 parameter logistic curve fit method. The compounds of formula (I) have HBsAg IC50<20 μM, particularly <1 μM; and HBV DNA IC50<50 μM.

The subject of experiment [2] is HBeAg (surrogate marker for cccDNA) in HepDES19 cells. Put plainly: Engineered HepDES19 primary screen assay (HBeAg ELISA). In kind it is cell-based, HBV. Particulars: Hepatitis B virus, HepDES19, 120 h, read-out: IC50 (HBeAg level, HepDES19 primary screen assay). The source says: The assay was employed to screen for novel cccDNA inhibitors. HepDES19 is a cccDNA-producing cell line. In this cell line, HBeAg in the cell culture supernatant as surrogate marker, as HBeAg production depends on cccDNA level and activity. HepDES19 is an engineered cell line which contains a 1.1 unit length HBV genome, and pgRNA transcription from the transgene is controlled by Tetracycline (Tet). In the absence of Tet, pgRNA transcription will be induced, but HBV e antigen (HBeAg) could not be produced from this pgRNA due to very short leader sequence before the HBeAg start codon and the start codon is disrupted. Only after cccDNA is formed, the missing leader sequence and start codon mutation would be restored from the 3′-terminal redundancy of pgRNA, and then HBeAg could be synthesized. Therefore, HBeAg could be used as a surrogate marker for cccDNA (Zhou, T. et al., Antiviral Res. (2006), 72(2), 116-124; Guo, H. et al., J. Virol. (2007), 81(22), 12472-12484).
HepDES19 cells were seeded at 2×10^6 cells per T150 flask and cultured with the culture medium (Dulbecco's Modified Eagle Medium: Nutrient Mixture F-12 [DMEM-F12, Gibco Cat. 11320-82], 10% Fetal Bovine Serum [FBS, Clontech Cat. 631101], 0.1 mM Non-Essential Amino Acids Solution [NEAA, Gibco Cat. 11140-050], 50 μg/mL Penicillin-Streptomycin [PS, Invitrogen Cat. 15140-163], 500 μg/mL Geneticin [G418, Invitrogen Cat. 10131-027]) containing 3 μg/mL Tet (Sigma, Cat. 87128) for 5 days. Cells were then seeded at 4×10^6 cells per T150 in the same culture medium as described above in the absence of Tet for 8 days. Cells were then harvested and frozen at density of 2×10^6 cells per ML. For compound testing, the frozen cells were thawed and seeded into 96-well plates at a density of 6×10^4 cells per well. At 24 hours after seeding, half log serial dilutions of compounds made with Dimethyl sulfoxide (DMSO, Sigma, Cat. D2650) were further diluted with the same culture medium as described above before they were added to the cells to reach desired final compound concentrations and 1% DMSO concentration. Plates were then incubated at 37° C. for another 5 days before measurement of HBeAg level and cell viability. Intracellular HBeAg level were measured with enzyme-linked immunosorbent assay (ELISA) kit (Shanghai Kehua Diagnostic Medical Products Co., Ltd). Cell viability was assessed using Cell Counting Kit-8 (DonJindo, Cat. CK04-20). IC50 values were derived from the dose-response curve using 4 parameter logistic curve fit method.
The compounds of the present invention were tested for their capacity to inhibit extracellular HBeAg level as described herein.

Turning to `COc1cc(Br)c(OCCO[C@H]2C[C@@H](C(=O)O)C2)cc1-c1cc(=O)c2cccc(Cl)c2o1` [Example 1, Cis-3-[2-[2-bromo-5-(8-chloro-4-oxo-chromen-2-yl)-4-methoxy-phenoxy]ethoxy]cyclobutanecarboxylic acid], the results for the IC50 in experiment [1] and in experiment [2] were 8.02 µM and 3180 nM, respectively. As for `COc1cc(Br)c(OCCC(=O)O)cc1-c1cc(=O)c2cccc(Cl)c2o1` [Example 2, 3-[2-Bromo-5-(8-chloro-4-oxo-chromen-2-yl)-4-methoxy-phenoxy]propanoic acid], the values for the IC50 in experiment [1] and in experiment [2] were 3.85 µM and 1190 nM, respectively. `COc1cc(Br)c(OC2CC(C(=O)O)C2)cc1-c1cc(=O)c2cccc(Cl)c2o1` (stereo not shown) [Example 5, 3-[2-Bromo-5-(8-chloro-4-oxo-chromen-2-yl)-4-methoxy-phenoxy]cyclobutanecarboxylic acid]: the IC50 (in general, the concentration at which inhibition is half-maximal) in experiment [1] was 4.09 µM; in experiment [2], 6080 nM. As to `COc1cc(Cl)c(OCCO[C@H]2C[C@@H](C(=O)O)C2)cc1-c1cc(=O)c2cccc(Cl)c2o1` [Example 8, Cis-3-[2-[2-chloro-5-(8-chloro-4-oxo-chromen-2-yl)-4-methoxy-phenoxy]ethoxy]cyclobutanecarboxylic acid], the IC50 in experiment [1] came out at 5.13 µM; in experiment [2], 1500 nM. On to `COc1cc(C)c(OCCCOCC(=O)O)cc1-c1cc(=O)c2cccc(Cl)c2o1` [Example 11, 2-[3-[5-(8-Chloro-4-oxo-chromen-2-yl)-4-methoxy-2-methyl-phenoxy]propoxy]acetic acid], for which the IC50 amounted to 7.4 µM in experiment [1] and 2430 nM in experiment [2]. For `Cc1ccc(-c2cc(=O)c3cccc(Cl)c3o2)cc1O[C@H]1C[C@@H](C(=O)O)C1` [Example 15, Cis-3-[5-(8-chloro-4-oxo-chromen-2-yl)-2-methyl-phenoxy]cyclobutanecarboxylic acid], the values for the IC50 in experiment [1] and in experiment [2] were 1.96 µM and 490 nM, respectively. For `O=C(O)COc1cc(-c2cc(=O)c3cccc(Cl)c3o2)ccc1C(F)(F)F` [Example 22, 2-[5-(8-Chloro-4-oxo-chromen-2-yl)-2-(trifluoromethyl)phenoxy]acetic acid], the IC50 is 6.59 µM in experiment [1] and 320 nM in experiment [2].

Take `COc1ccc(OCCO[C@H]2C[C@@H](C(=O)O)C2)cc1-c1cc(=O)c2cccc(Cl)c2o1` [Example 31, Cis-3-[2-[3-(8-Chloro-4-oxo-chromen-2-yl)-4-methoxy-phenoxy]ethoxy]cyclobutanecarboxylic acid]: the IC50 was 10.2 µM in experiment [1] and 4660 nM in experiment [2]. `COc1c(-c2cc(=O)c3cccc(Cl)c3o2)ccc(Br)c1OC1CC(C(=O)O)C1` (stereo not shown) [Example 35, 3-[6-Bromo-3-(8-chloro-4-oxo-chromen-2-yl)-2-methoxy-phenoxy]cyclobutanecarboxylic acid]: the values for the IC50 in experiment [1] and in experiment [2] were 3.91 µM and 190 nM, respectively. For the molecule `COc1c(-c2cc(=O)c3cccc(Cl)c3o2)ccc(C)c1OC1CC(C(=O)O)C1` (stereo not shown) [Example 36, 3-[3-(8-Chloro-4-oxo-chromen-2-yl)-2-methoxy-6-methyl-phenoxy]cyclobutanecarboxylic acid], the values for the IC50 in experiment [1] and in experiment [2] were 9.26 µM and 3130 nM, respectively.

In the case of `O=C(O)CCOc1cc(-c2cc(=O)c3cccc(Cl)c3o2)c(OC(F)(F)F)cc1Br` [Example 42, 3-[2-Bromo-5-(8-chloro-4-oxo-chromen-2-yl)-4-(trifluoromethoxy)phenoxy]propanoic acid], in experiment [2], the IC50 came out at 2630 nM.

As for `O=C(O)CCOc1cc(-c2cc(=O)c3cccc(Cl)c3o2)c(Cl)cc1Br` [Example 43, 3-[2-Bromo-4-chloro-5-(8-chloro-4-oxo-chromen-2-yl)phenoxy]propanoic acid], the IC50 in experiment [2] is 11700 nM.

As for `COc1c(-c2cc(=O)c3cccc(Cl)c3o2)ccc(Br)c1OCCCNC(=O)C(=O)O` [Example 44, 2-[3-[6-Bromo-3-(8-chloro-4-oxo-chromen-2-yl)-2-methoxy-phenoxy]propylamino]-2-oxo-acetic acid], in experiment [2], the half-inhibitory concentration (IC50) turned out to be 1440 nM. Consider `COc1cc(Br)c(OCCNC(=O)C(=O)O)cc1-c1cc(=O)c2cccc(Cl)c2o1` [Example 45, 2-[2-[2-Bromo-5-(8-chloro-4-oxo-chromen-2-yl)-4-methoxy-phenoxy]ethylamino]-2-oxo-acetic acid], for which, in experiment [2], the IC50 was 1400 nM.

With `COc1cc(Br)c(OCCCNC(=O)C(=O)O)cc1-c1cc(=O)c2cccc(Cl)c2o1` [Example 46, 2-[3-[2-Bromo-5-(8-chloro-4-oxo-chromen-2-yl)-4-methoxy-phenoxy]propylamino]-2-oxo-acetic acid], the IC50 in experiment [2] is 610 nM.

The record behind these values is US20220213049A1, “S[…]-4-ONE FOR THE TREATMENT AND PROPHYLAXIS OF HEPATITIS B VIRUS INFECTION” (priority 2019, published 2022).
